Measured values reported in a melting point compilation (Tetko et al.; mined from patent text by program, amines drawn as free bases though some values may be those of a salt).

Row | Compound | melting point
1 | Cc1cc(C(=O)N2Cc3ccc(C(=O)O)n3Cc3ccccc32)ccc1C1=CCCc2ccccc21 | 150 to 153 °C
2 | COc1ccc(C=O)cc1C(C)(C)C | 52 °C
3 | O=C(Nc1ccc(Br)cn1)C(F)(F)F | 70 to 72 °C
4 | CCN(CC)C(=O)C=Cc1ccc(C2=C(c3ccc(O)cc3)CCc3cc(O)ccc32)cc1 | 222 °C
5 | COc1ccc(-n2c(=O)c(O)nc3cccnc32)cc1 | > 300 °C
6 | CC(C)(C)c1cc(CCc2ccccc2NC(=O)NCc2ccco2)cc(C(C)(C)C)c1O | 170 °C
7 | Nc1ccc(Oc2cccc(Oc3ccc(N)cc3)n2)cc1 | 152 to 154 °C
8 | NC(=O)c1cc2c(C=Cc3ccccc3)cncc2s1 | 257 to 258 °C
9 | O=C(CO)N1CCN(c2ccc(Nc3cc(-c4cnc5cc[nH]c5c4)cn4ccnc34)nc2)CC1 | 218 to 220 °C
10 | COc1cccc(-c2ccc3c(c2)C(C)(C(F)(F)F)OC(=O)N3)c1 (stereo not given) | 178 to 179 °C
11 | COc1ccc2c(c1)CCC1C3=CC(C)=C(OC(C)=O)C3(C)CCC21 (stereo not given) | 129 to 130 °C
12 | N#CCC(=C(C#N)C#N)c1ccccc1 | 92 to 98 °C
13 | CCCc1c(OCc2ccc(C(=O)O)cc2F)ccc(C(C)=O)c1O | 203 to 206 °C
14 | Cc1cc(-c2ccnn2-c2ccc(S(N)(=O)=O)c(F)c2C(F)F)ccc1-c1cscn1 | 204 °C
15 | CCOC(=O)C1=C(COCCO)Nc2ccnc(OC(C)C)c2C1c1ccccc1C(F)(F)F (stereo not given) | 109 to 112 °C
16 | CCOC(=O)c1[nH]cc2c1NC1=C(C(=O)CNC1)C2c1ccc(Sc2nc3ccc(OC)cc3[nH]2)o1 (stereo not given) | 248 °C
17 | C[C@]12CCC(=O)N[C@@H]1CCc1cc(-c3nccs3)ccc12 | 206 to 207 °C
18 | CN1C(=O)NC2(CCN(C(=O)OC(C)(C)C)CC2)C1=O | 206 to 208 °C
19 | CCOC(=O)CN(Cc1ccccc1)c1ncnc2c(N3CCOCC3)nc(N3CCC(N(C)C)CC3)nc12 | 112 to 115 °C
20 | CCc1cc2cc(CC(=O)O)c(Cl)c(Cl)c2s1 | 179 to 181 °C

Row | Compound | melting point
21 | O=C(O)c1[nH]c2cc(Cl)cc(Cl)c2c1C=C1CCNN(c2ccccc2)C1=O | > 250 °C
22 | N#CC1CN1C(=O)NC(=O)c1ccc(-c2ccccc2)cc1 (stereo not given) | 168 to 172 °C
23 | CCOC(=O)c1cc2occc2nc1C(=O)OCC | 60 to 64 °C
24 | COc1ccc(C(CCc2ccccc2)C(=O)O)cc1 (stereo not given) | 92 to 97 °C
25 | CCOC(=O)c1nnc(Cc2c(F)cccc2F)n1C | 127 to 128 °C
26 | Nc1scc2c1C(=O)c1c(Cl)cccc1-2 | 183 to 185 °C
27 | CCOC(=O)CCCn1c(Nc2c(C)nn(C)c2C)nc2c(Cl)ccc(C(CC)CC)c21 | 177 to 178 °C
28 | O=C(Nc1cc(-c2ccnc3c(C(=O)c4cccs4)cnn23)ccc1Cl)c1ccccc1 | 217 to 218 °C
29 | CCOC(=O)C(NC(=O)OC(C)(C)C)=C1CSCSC1 | 154 °C
30 | C[C@H](NC(=O)c1c[nH]c2ncc(C3CC3)nc12)C(C)(C)CS(C)(=O)=O | 232 to 234 °C
31 | COc1cc(C2c3cc4c(cc3C(O)CC2C(=O)O)OCO4)cc(OC)c1OC (stereo not given) | 181 to 182 °C
32 | C=CCN(C)S(=O)(=O)CC(=O)C=C(C)N | 86 to 89 °C
33 | CC(=O)O[C@H]1CS[C@H](C(=O)O)O1 (relative stereo) | 111 °C
34 | O=c1[nH]c(=O)n(C2CC2)c2c(OC(F)F)c(F)ccc12 | 215 to 221 °C
35 | CCNC(=O)c1cccc(C(F)(F)F)c1 | 98 to 99 °C
36 | C[C@]1(COc2ccc(N3CCC(Cc4ccc(Cl)cc4)CC3)cc2)Cn2cc([N+](=O)[O-])nc2O1 | 207 to 211 °C
37 | O=C(O)C(Oc1ccc(F)c(C(F)(F)F)c1)c1ccc(Cl)cc1 (stereo not given) | 106 °C
38 | CCOC(=O)c1ccsc1NC(=O)NCCN1CCN(c2ccccc2)CC1 | 117 to 120 °C
39 | COc1ccc(-n2c(-c3cc(-c4ccccc4)c(N4CCOCC4)s3)nc3ccccc3c2=O)cc1 | 164 to 165 °C
40 | Cn1nc2c(c1-c1ccc(Cl)cc1)Cc1ccccc1-2 | 131 to 133 °C
